The results in this text go back to ChEMBL document CHEMBL3714723, “Thiazole and oxazole-substituted arylamides as P2X3 and P2X2/3 antagonists” (2010).

The source made the active and inactive calls. The rule behind the calls is not given here.

The target of the assay is T1, P2X purinoceptor 3 (Rattus norvegicus) (UniProt P49654).
T1 sequence (whole entry): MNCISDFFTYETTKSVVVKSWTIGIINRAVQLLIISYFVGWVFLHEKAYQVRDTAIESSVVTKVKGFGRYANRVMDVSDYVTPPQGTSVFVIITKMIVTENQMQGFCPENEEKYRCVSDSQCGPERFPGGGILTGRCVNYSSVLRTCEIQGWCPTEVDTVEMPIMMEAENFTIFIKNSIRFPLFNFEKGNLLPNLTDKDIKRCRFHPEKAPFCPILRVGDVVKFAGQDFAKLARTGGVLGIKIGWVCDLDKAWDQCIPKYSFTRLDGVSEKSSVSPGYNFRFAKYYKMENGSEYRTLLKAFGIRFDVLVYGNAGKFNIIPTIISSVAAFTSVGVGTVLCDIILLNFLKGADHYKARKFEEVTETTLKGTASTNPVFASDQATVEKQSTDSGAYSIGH
Nature of the assay: Antagonist activity against rat P2X3 receptor expressed in CHOK1 cells assessed as inhibition of alpha,beta-meATP-induced calcium response incubated for 20 mins by Fluo-3AM dye based FLIPR assay. The format is functional, cell-based. The settings on record: CHO-K1.
Take `CCC(C)(C)NC(=O)c1cc(-c2ccc(C)cc2)cc(-c2nccs2)c1`: the “antagonist activity call (active/inactive)” value was “Active”.

With `CC(=O)N1CCN(C[C@@H](C)NC(=O)c2cc(-c3ccc(C)cc3)cc(-c3cncs3)c2)CC1`, the “antagonist activity call (active/inactive)” value is “Active”.

In the case of `Cc1ccc(-c2cc(C(=O)NC(C)CO)cc(-c3scnc3C)c2)cc1` (stereo not given), the “antagonist activity call (active/inactive)” value is “Active”.

Regarding `CCOC(=O)c1cnc(-c2cc(C(=O)NC(C)COC)cc(-c3ccc(C)cc3)c2)s1` (stereo not given), the “antagonist activity call (active/inactive)” value was “Active”.

On to `C[C@H](CN1CCN(S(C)(=O)=O)CC1)NC(=O)c1cc(-c2cncs2)cc(-c2ccc(F)cc2Cl)c1`, for which the “antagonist activity call (active/inactive)” value is “Active”.

With `COCC(C)NC(=O)c1cc(-c2ccc(C)cc2)cc(-c2ncc(C(=O)NC(C)C)s2)c1` (stereo not given), the “antagonist activity call (active/inactive)” value was “Active”.

For `COCC(C)NC(=O)c1cc(-c2ccc(C)cc2)cc(-c2ncc(C(=O)N(C)C)s2)c1` (stereo not given), the “antagonist activity call (active/inactive)” value is “Active”.

Consider `CNC(=O)c1cnc(-c2cc(C(=O)NC(C)COC)cc(-c3ccc(C)cc3)c2)s1` (stereo not given), for which the “antagonist activity call (active/inactive)” value is “Active”.

Take `COCC(C)NC(=O)c1cc(-c2cncs2)cc(-c2ccc(F)cc2F)c1` (stereo not given): the “antagonist activity call (active/inactive)” value is “Active”.

Take `CCc1ncsc1-c1cc(C(=O)NCc2cnc(C)cn2)cc(-c2ccc(C)cc2)c1`: the “antagonist activity call (active/inactive)” value is “Active”.

For `Cc1ccc(-c2cc(C(=O)N[C@H](C)CN3CCOCC3)cc(-c3cncs3)c2)cc1`, the “antagonist activity call (active/inactive)” value was “Active”.

On to `Cc1ccc(-c2cc(C(=O)N[C@H](C)CN3CCN(S(C)(=O)=O)CC3)cc(-c3nccs3)c2)cc1`, for which the “antagonist activity call (active/inactive)” value is “Active”.

`COCC(C)NC(=O)c1cc(-c2ccc(C)cc2)cc(-c2ncco2)c1` (stereo not given): the “antagonist activity call (active/inactive)” value was “Active”.

`Cc1ccc(-c2cc(C(=O)NCc3ccc(C)nn3)cc(-c3ncsc3C(C)C)c2)nc1`: the “antagonist activity call (active/inactive)” value was “Active”.

As for `COCC(C)NC(=O)c1cc(-c2ccc(C)cc2)cc(-c2ccno2)c1` (stereo not given), the “antagonist activity call (active/inactive)” value is “Active”.

Regarding `Cc1ccc(-c2cc(C(=O)NC(C)(C)c3ccccc3)cc(-c3nccs3)c2)cc1`, the “antagonist activity call (active/inactive)” value was “Active”.

Regarding `Cc1ccc(-c2cc(C(=O)N[C@H](C)CN3CCN(S(C)(=O)=O)CC3)cc(-c3nccs3)c2)c(F)c1`, the “antagonist activity call (active/inactive)” value is “Active”.

Regarding `COC[C@@H](C)NC(=O)c1cc(-c2ccc(C)cc2)cc(-c2scnc2C)c1`, the “antagonist activity call (active/inactive)” value was “Active”.

Consider `Cc1ccc(-c2cc(C(=O)NC(C)c3cnccn3)cc(-c3cncs3)c2)cc1` (stereo not given), for which the “antagonist activity call (active/inactive)” value was “Active”.

For the compound `CC(=O)N1CCN(C[C@@H](C)NC(=O)c2cc(-c3ccc(C)cc3)cc(-c3nccs3)c2)CC1`, the “antagonist activity call (active/inactive)” value is “Active”.

As to `Cc1ccc(-c2cc(C(=O)N[C@H](C)CN3CCOCC3)cc(-c3nccs3)c2)c(F)c1`, the “antagonist activity call (active/inactive)” value is “Active”.

As to `COCC(C)NC(=O)c1cc(-c2ccc(C)cc2)cc(-c2ccns2)c1` (stereo not given), the “antagonist activity call (active/inactive)” value was “Active”.

For `COCC(C)NC(=O)c1cc(-c2ccc(C)cc2)cc(-c2nccs2)c1` (stereo not given), the “antagonist activity call (active/inactive)” value was “Active”.

Regarding `Cc1ccc(-c2cc(C(=O)NCc3ccc(C)nn3)cc(-c3scnc3C(C)C)c2)nc1`, the “antagonist activity call (active/inactive)” value is “Active”.

With `Cc1ccc(-c2cc(C(=O)NC(C)CN(C)C)cc(-c3nccs3)c2)cc1` (stereo not given), the “antagonist activity call (active/inactive)” value is “Active”.

Regarding `COCC(C)NC(=O)c1cc(-c2ccc(C)cc2)cc(-c2nc3ccccc3s2)c1` (stereo not given), the “antagonist activity call (active/inactive)” value was “Active”.

As for `Cc1ccc(-c2cc(C(=O)N[C@H](C)CN3CCN(S(C)(=O)=O)CC3)cc(-c3cncs3)c2)cc1`, the “antagonist activity call (active/inactive)” value was “Active”.

Take `Cc1ccc(-c2cc(C(=O)N[C@H](C)CO)cc(-c3nccs3)c2)cc1`: the “antagonist activity call (active/inactive)” value is “Active”.

Regarding `C[C@H](CN1CCN(S(C)(=O)=O)CC1)NC(=O)c1cc(-c2nccs2)cc(-c2ccc(F)cc2Cl)c1`, the “antagonist activity call (active/inactive)” value was “Active”.

As for `COCC(C)NC(=O)c1cc(-c2cncs2)cc(-c2ccc(F)cc2Cl)c1` (stereo not given), the “antagonist activity call (active/inactive)” value was “Active”.

Consider `COc1ccc([C@@H](C)NC(=O)c2cc(-c3ccc(C)cc3)cc(-c3nccs3)c2)cc1`, for which the “antagonist activity call (active/inactive)” value was “Active”.

In the case of `COCC(C)NC(=O)c1cc(-c2ccc(C)cc2)cc(-c2scnc2C)c1` (stereo not given), the “antagonist activity call (active/inactive)” value is “Active”.

As to `Cc1ccc(-c2cc(C(=O)N[C@H](C)CO)cc(-c3nccs3)c2)c(F)c1`, the “antagonist activity call (active/inactive)” value is “Active”.

For the compound `Cc1ccc(-c2cc(C(=O)NC(C)c3cnccn3)cc(-c3scnc3C)c2)cc1` (stereo not given), the “antagonist activity call (active/inactive)” value is “Active”.

`CC(=O)N1CCN(C[C@@H](C)NC(=O)c2cc(-c3ccc(C)cc3)cc(-c3scnc3C)c2)CC1`: the “antagonist activity call (active/inactive)” value is “Active”.

Turning to `COCC(C)NC(=O)c1cc(-c2ccc(C)cc2)cc(-c2oncc2C)c1` (stereo not given), the “antagonist activity call (active/inactive)” value was “Active”.

Consider `Cc1ccc(-c2cc(C(=O)N[C@H](C)CN3CCS(=O)(=O)CC3)cc(-c3scnc3C)c2)cc1`, for which the “antagonist activity call (active/inactive)” value was “Active”.

As to `CCCc1ncoc1-c1cc(C(=O)NCc2cnc(C)cn2)cc(-c2ccc(C)cn2)c1`, the “antagonist activity call (active/inactive)” value was “Active”.

As for `Cc1ccc(-c2cc(C(=O)N[C@@H](C)CO)cc(-c3scnc3C(C)C)c2)nc1`, the “antagonist activity call (active/inactive)” value was “Active”.

For `Cc1ccc(-c2cc(C(=O)NC(C)c3cnccn3)cc(-c3nccs3)c2)c(F)c1` (stereo not given), the “antagonist activity call (active/inactive)” value was “Active”.

In the case of `Cc1ccc(-c2cc(C(=O)NCCOCCO)cc(-c3nccs3)c2)cc1`, the “antagonist activity call (active/inactive)” value is “Active”.

As for `CCC(C)NC(=O)c1cc(-c2ccc(C)cc2)cc(-c2nccs2)c1` (stereo not given), the “antagonist activity call (active/inactive)” value was “Active”.

On to `COCC(C)NC(=O)c1cc(-c2ccc(C)cc2)cc(-c2cncs2)c1` (stereo not given), for which the “antagonist activity call (active/inactive)” value was “Active”.

With `Cc1ccc(-c2cc(C(=O)N[C@H](C)CN3CCN(S(C)(=O)=O)CC3)cc(-c3cncs3)c2)c(F)c1`, the “antagonist activity call (active/inactive)” value was “Active”.

For the compound `COCC(C)NC(=O)c1cc(-c2ccc(C)cc2)cc(-c2cscn2)c1` (stereo not given), the “antagonist activity call (active/inactive)” value was “Active”.

For `Cc1ccc(-c2cc(C(=O)N[C@H](C)CN3CCOCC3)cc(-c3scnc3C)c2)cc1`, the “antagonist activity call (active/inactive)” value is “Active”.

In the case of `COCC(C)NC(=O)c1cc(-c2ccc(C)cc2)cc(-c2cocn2)c1` (stereo not given), the “antagonist activity call (active/inactive)” value is “Active”.

In the case of `COC[C@H](C)NC(=O)c1cc(-c2ccc(C)cc2)cc(-c2scnc2C)c1`, the “antagonist activity call (active/inactive)” value is “Active”.

In the case of `CC(=O)N1CCN(C[C@@H](C)NC(=O)c2cc(-c3nccs3)cc(-c3ccc(C)cc3F)c2)CC1`, the “antagonist activity call (active/inactive)” value is “Active”.

`Cc1ccc(-c2cc(C(=O)NC(C)c3cnccn3)cc(-c3nccs3)c2)cc1` (stereo not given): the “antagonist activity call (active/inactive)” value was “Active”.

For the compound `Cc1ccc(-c2cc(C(=O)NC(C)c3ccco3)cc(-c3nccs3)c2)cc1` (stereo not given), the “antagonist activity call (active/inactive)” value was “Active”.

On to `C[C@H](CN1CCOCC1)NC(=O)c1cc(-c2nccs2)cc(-c2ccc(F)cc2Cl)c1`, for which the “antagonist activity call (active/inactive)” value is “Active”.

Regarding `COCC(C)NC(=O)c1cc(-c2ccc(C)cc2)cc(-c2cnco2)c1` (stereo not given), the “antagonist activity call (active/inactive)” value was “Active”.

With `Cc1ccc(-c2cc(C(=O)N[C@H](C)CN3CCOCC3)cc(-c3nccs3)c2)cc1`, the “antagonist activity call (active/inactive)” value was “Active”.

Consider `C[C@H](CN1CCOCC1)NC(=O)c1cc(-c2cncs2)cc(-c2ccc(F)cc2Cl)c1`, for which the “antagonist activity call (active/inactive)” value was “Active”.
